# Test results from publication PMC6386719, “A glycyl radical enzyme enables hydrogen sulfide production by the human intestinal bacterium Bilophila wadsworthia” (Proceedings of the National Academy of Sciences of the …, 2019).
# T1: AdhE (CoA-acylating aldehyde dehydrogenase) (Bilophila wadsworthia, UniProt E5Y379)
# T1 construct: His-tagged, E. coli BL21
# T1 sequence (E5Y379 1-484): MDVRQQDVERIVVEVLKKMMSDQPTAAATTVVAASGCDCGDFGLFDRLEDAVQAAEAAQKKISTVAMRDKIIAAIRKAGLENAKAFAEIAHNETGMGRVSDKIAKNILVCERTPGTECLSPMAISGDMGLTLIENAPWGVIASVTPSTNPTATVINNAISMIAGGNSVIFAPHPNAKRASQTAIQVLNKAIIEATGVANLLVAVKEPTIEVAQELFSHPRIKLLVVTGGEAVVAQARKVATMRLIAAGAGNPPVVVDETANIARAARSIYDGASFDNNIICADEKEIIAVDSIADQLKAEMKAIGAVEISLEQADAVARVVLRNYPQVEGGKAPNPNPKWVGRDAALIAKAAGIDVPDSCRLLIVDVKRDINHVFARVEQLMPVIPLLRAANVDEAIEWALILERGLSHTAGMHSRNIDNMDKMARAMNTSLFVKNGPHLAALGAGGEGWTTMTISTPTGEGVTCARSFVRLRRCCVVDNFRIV
# T2: Tpa (taurine:pyruvate aminotransferase) (Bilophila wadsworthia, UniProt E5Y945)
# T2 construct: His-tagged, E. coli Rosetta 2 DE3
# T2 sequence (E5Y945 1-456): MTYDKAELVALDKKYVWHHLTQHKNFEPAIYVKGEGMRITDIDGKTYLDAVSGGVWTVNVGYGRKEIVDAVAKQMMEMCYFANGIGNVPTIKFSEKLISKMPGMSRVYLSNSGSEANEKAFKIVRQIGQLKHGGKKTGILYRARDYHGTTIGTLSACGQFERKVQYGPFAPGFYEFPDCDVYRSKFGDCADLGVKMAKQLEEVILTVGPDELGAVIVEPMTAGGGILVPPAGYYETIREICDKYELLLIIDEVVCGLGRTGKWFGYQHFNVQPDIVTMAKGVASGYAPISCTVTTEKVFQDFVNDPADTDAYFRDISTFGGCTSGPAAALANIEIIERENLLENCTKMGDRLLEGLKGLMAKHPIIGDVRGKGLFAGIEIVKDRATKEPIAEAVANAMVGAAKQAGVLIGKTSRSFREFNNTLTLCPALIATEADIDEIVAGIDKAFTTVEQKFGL
# Key:
# [1] = target: T1, AdhE (CoA-acylating aldehyde dehydrogenase); experiment: conversion to acetyl-CoA; type: biochemical; conditions: CoASH
# O=S(=O)(O)CCO = experiment: purified protein; conditions: anoxic; IslB-activated enzyme; NADH in coupling assay
# [2] = target: T2, Tpa (taurine:pyruvate aminotransferase); experiment: deamination to sulfoacetaldehyde; LC-MS; type: biochemical
# [3] = target: T3, SarD (sulfoacetaldehyde reductase) (Bilophila wadsworthia, UniProt E5Y946); experiment: NADH-dependent reduction to isethionate; type: biochemical
# T3 construct: His-tagged, E. coli Rosetta 2 DE3
# [4] = target: T4, IslB (GRE-activating enzyme) (Bilophila wadsworthia, UniProt E5Y377); experiment: glycyl radical installation on IslA, EPR; type: biochemical; conditions: anoxic, acriflavine as photosensitizer
# T4 construct: His-tagged, E. coli BL21(DE3) delta-iscR::kan, anoxic purification, reconstituted, reduced with dithionite
# [5] = substrate: O=S(=O)(O)CCO; experiment: coupled spectrophotometric assay with yeast alcohol dehydrogenase; type: biochemical, Desulfovibrio desulfuricans; conditions: anoxic; activated enzyme
# Excerpt: coupled spectrophotometric assay with yeast alcohol dehydrogenase on GRE IslA of D. desulfuricans DSM642 | selectivity for the cleavage of isethionate to sulfite and acetaldehyde, but a modest apparent kcat/Km
# T3 sequence (E5Y946 whole entry): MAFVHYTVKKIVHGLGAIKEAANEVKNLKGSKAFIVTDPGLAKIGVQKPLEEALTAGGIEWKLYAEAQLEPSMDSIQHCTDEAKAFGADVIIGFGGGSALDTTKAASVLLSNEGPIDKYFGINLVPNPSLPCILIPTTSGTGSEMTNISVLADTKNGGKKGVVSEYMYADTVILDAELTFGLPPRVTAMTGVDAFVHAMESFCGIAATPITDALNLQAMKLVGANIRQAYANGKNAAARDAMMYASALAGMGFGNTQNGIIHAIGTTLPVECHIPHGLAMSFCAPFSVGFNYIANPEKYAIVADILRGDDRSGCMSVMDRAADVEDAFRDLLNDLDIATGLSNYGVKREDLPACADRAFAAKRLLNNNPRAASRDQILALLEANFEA
# T4 sequence (E5Y377 whole entry): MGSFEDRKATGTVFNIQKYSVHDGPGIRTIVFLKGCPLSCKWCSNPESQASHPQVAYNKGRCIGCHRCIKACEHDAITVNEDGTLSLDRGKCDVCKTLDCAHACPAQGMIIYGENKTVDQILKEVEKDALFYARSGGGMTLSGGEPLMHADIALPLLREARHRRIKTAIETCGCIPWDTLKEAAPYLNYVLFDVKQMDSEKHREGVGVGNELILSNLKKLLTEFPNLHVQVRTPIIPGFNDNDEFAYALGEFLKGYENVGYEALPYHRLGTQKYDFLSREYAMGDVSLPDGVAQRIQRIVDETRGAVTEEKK
# T4 sequence (E5Y378 whole entry, further chain): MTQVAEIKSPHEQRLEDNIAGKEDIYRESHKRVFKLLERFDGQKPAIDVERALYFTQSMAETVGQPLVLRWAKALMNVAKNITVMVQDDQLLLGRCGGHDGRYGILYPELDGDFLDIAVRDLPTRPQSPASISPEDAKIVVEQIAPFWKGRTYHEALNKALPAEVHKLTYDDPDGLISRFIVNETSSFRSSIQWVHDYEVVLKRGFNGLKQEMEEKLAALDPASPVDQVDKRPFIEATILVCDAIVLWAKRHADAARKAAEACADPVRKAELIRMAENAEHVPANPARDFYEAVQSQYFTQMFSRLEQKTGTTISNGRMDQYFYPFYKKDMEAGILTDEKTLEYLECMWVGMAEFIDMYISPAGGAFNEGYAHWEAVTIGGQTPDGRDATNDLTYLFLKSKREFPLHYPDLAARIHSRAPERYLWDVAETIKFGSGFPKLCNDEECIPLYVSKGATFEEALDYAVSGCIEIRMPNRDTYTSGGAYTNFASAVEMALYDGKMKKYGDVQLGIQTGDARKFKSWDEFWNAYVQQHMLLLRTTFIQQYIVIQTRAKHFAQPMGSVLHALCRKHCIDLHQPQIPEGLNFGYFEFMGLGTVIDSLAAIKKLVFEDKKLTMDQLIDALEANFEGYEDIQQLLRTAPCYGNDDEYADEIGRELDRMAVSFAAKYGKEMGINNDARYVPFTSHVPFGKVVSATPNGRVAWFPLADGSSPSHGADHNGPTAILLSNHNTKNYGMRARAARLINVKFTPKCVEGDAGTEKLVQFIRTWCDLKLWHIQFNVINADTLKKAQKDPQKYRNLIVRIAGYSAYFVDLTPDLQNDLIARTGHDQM
molecule,measurement,setting,value
CC=O [acetaldehyde],conversion to acetyl-CoA,[1]; NAD+,converted acetaldehyde to acetyl-CoA only in the presence of CoASH and NAD^+
IslA (isethionate sulfite-lyase) (Bilophila wadsworthia 3_1_6),Km,O=S(=O)(O)CCO,8.1 ± 0.8 mM
same,kcat,O=S(=O)(O)CCO,14 ± 0.4 s⁻¹
CC(=O)C(=O)O [pyruvate],deamination to sulfoacetaldehyde; LC-MS,[2]; taurine,Tpa catalyzes the deamination of taurine with pyruvate to generate sulfoacetaldehyde and alanine
O=CCS(=O)(=O)O [sulfoacetaldehyde],NADH-dependent reduction to isethionate,[3]; NADH,SarD reduces sulfoacetaldehyde to isethionate in an NADH-dependent manner
NC(=O)c1ccc[n+]([C@@H]2O[C@H](COP(=O)(O)OP(=O)(O)OC[C@H]3O[C@@H](n4cnc5c(N)ncnc54)[C@H](O)[C@@H]3O)[C@@H](O)[C@H]2O)c1 [NAD^+],conversion to acetyl-CoA,[1]; acetaldehyde,it preferred NAD^+ over NADP^+
"NCCS(=O)(=O)O [taurine, 2-aminoethanesulfonate]",deamination to sulfoacetaldehyde; LC-MS,[2]; pyruvate,Tpa catalyzes the deamination of taurine with pyruvate to generate sulfoacetaldehyde and alanine
NC(=O)C1=CN([C@@H]2O[C@H](COP(=O)(O)OP(=O)(O)OC[C@H]3O[C@@H](n4cnc5c(N)ncnc54)[C@H](O)[C@@H]3O)[C@@H](O)[C@H]2O)C=CC1 [NADH],NADH-dependent reduction to isethionate,[3]; sulfoacetaldehyde,SarD reduces sulfoacetaldehyde to isethionate in an NADH-dependent manner
C[S+](CC[C@H](N)C(=O)O)C[C@H]1O[C@@H](n2cnc3c(N)ncnc32)[C@H](O)[C@@H]1O (some centres unmarked) [SAM],"glycyl radical installation on IslA, EPR",[4],incubated with the purified GRE IslA in the presence of SAM and acriflavine
"GRE IslA of D. desulfuricans DSM642 (Desulfovibrio desulfuricans ATCC 27774) (protein, His-tagged, E. coli BL21) MSMTTCECRSPQEQRLYDKIEGREDRFRKTHPRVFRLLERFEGQKPRIDIERALYFTQSMQETEGQPLVLRWAKALMHIARNMTVYVQEDQLLLGRAGCDGRYGILYPELDGDFLDIAVRDLPTRKTSPATITPEDARRVVEEIAPYWKGKTYHEALNAALPAEVHKLTYDDPEGLISRFIVNETSSFRSSIQWVHDYEKILKRGFNSIKKEAREKLAALDPLSAKDDREKRPFLEAVMIVCDAIVLWAKRHAVLAREMAEKESDPVRKAELLRMAENAEHVPGEPARDFWEACQSQWFTQMFSRIEQKTGTTISNGRMDQYFQPYYKQDREAGKITEAQAMELLECMWVGMAEFIDMYISPTGGAFNEGYAHWEAVTVGGQTPDGRDASNDLTYLILKSKREFPLHYPDLAARIHSRAPERYLWDVAETIKYGSGFPKLINDEEIVPLYVSKGATFEEALDYAVSGCTEARMPNRDTYTSGGAYINFAAAVEMVLRNGRMKKYGDQKLGVETGDPRSFTTWDQFWNAYVEQHLLFLKTAFTQQYIINKLRAEHFAQPMGSAMHDLCMKHCIDLHQEQIPEGINLGYFEYMGLGTVVDSLAAVKKLVFEEKKLSMDKLIAAIDADFEGYEDVRALLRSAPCYGNNDEYADAIGRDIDRISVEYGNKYSMSDLGIHNDVRYVPFTSHVPFGKVVSATPNGRTDGFPLSDGSSASHGADVNGPTAVLLSNCTTKNMGLRDRAARMLNIKFTPKCVEGEQGTEKLVSFIRTFCDLKLWHVQFNVVNKGTLVAAQKDPQKYRNLIVRIAGYSAYFVDLSPDLQNDLIARTEHDVM",Km,[5],6.3 ± 0.5 mM
same,kcat,[5],12 ± 0.2 s⁻¹
